Data from patent US20240190842A1, “SUBSTITUTED QUINOLINONE-8-CARBONITRILE DERIVATIVES HAVING ANDROGEN DEGRADATION ACTIVITY AND USES THEREOF” (Accutar Biotechnology Inc., priority 2022, published 2024).

Assays:
[1] = tested on: VCAP cells; experiment: Inhibition of R1881 stimulated cell growth in VCAP cells (CellTiter-Glo); assay type: cell-based; details: Homo sapiens, 144 h, 10% CSS, 6 days
Method: (§1) LNCAP and VCAP cells were seeded in 96-well plates at 5000 (LNCAP) and 6000 (VCAP) cells/well in phenol red-free RPM11640 supplemented with 10% charcoal stripped serum (CSS), and then incubated at 37° C. overnight. The following day, the test compound was administered to the cells by using 1000× compound stock solution prepared in DMSO at various concentrations. 1000× compound stock solution was first diluted 1:100 in phenol red-free RPM11640 supplemented with 10% CSS and 1 nM R1881 to prepare the 10× treatment solutions containing serial dilutions of AC176 together in the presence of 1 nM, and then 10 uL compound medium was added to each well in the cell plates. After administration of the compound, the cells were then incubated at 37° C. for 6 days. Upon completion, the plates were equilibrated at room temperature for approximately 10 minutes. 100 ul of CellTiter-Glo® 3D Reagent (Promega) was added to each well. The plates were then incubated at room temperature for 30 minutes and luminescence was recorded by EnSpire plate reader (PerkinElmer). The results are shown in Table 5, which summarizes the growth inhibition (G150) in LNCAP and VCAP cells with exemplary compounds of the present disclosure.

[2] = tested on: LNCAP cells; experiment: Inhibition of R1881 stimulated cell growth in LNCAP cells (CellTiter-Glo); assay type: cell-based; details: Homo sapiens, 144 h, 10% CSS, 6 days
Method: as §1

| Compound | GI50 [1] [nM] | GI50 [2] [nM] |
| --- | --- | --- |
| CC1(C)C(NC(=O)c2ccc(N3CCC(CN4CCN(c5ccc6c(c5)C(=O)N(C5CCC(=O)NC5=O)C6=O)CC4)CC3)cc2)C(C)(C)C1Oc1ccc(C#N)c2[nH]c(=O)ccc12 (stereo not drawn) [Compound 20, N-((1,3-trans)-3-((8-cyano-2-oxo-1,2-dihydroquinolin-5-yl)oxy)-2,2,4,4-tetramethylcyclobutyl)-4-(4-((4-(2-(2,6-dioxopiperidin-3-yl)-1,3-dioxoisoindolin-5-yl)piperazin-1-yl)methyl)piperidin-1-yl)benzamide] | 50 to 500 | > 500 |
| CC1(C)C(NC(=O)c2ccc(N3CCC(CN4CCN(c5ccc6c(c5)CN([C@H]5CCC(=O)NC5=O)C6=O)CC4)CC3)cc2)C(C)(C)C1Oc1ccc(C#N)c2[nH]ccc(=O)c12 (stereo partly drawn) [Compound 30, N-((1,3-trans)-3-((8-cyano-4-oxo-1,4-dihydroquinolin-5-yl)oxy)-2,2,4,4-tetramethylcyclobutyl)-4-(4-((4-(2-((S)-2,6-dioxopiperidin-3-yl)-1-oxoisoindolin-5-yl)piperazin-1-yl)methyl)piperidin-1-yl)benzamide] | ≤ 50 | ≤ 50 |
| Cn1c(=O)ccc2c(OC3C(C)(C)C(NC(=O)c4ccc(N5CCC(CN6CCN(c7ccc8c(c7)CN([C@H]7CCC(=O)NC7=O)C8=O)CC6)CC5)cc4)C3(C)C)ccc(C#N)c21 (stereo partly shown) [Compound 34] | ≤ 50 | ≤ 50 |
| Cn1ccc(=O)c2c(O[C@H]3C(C)(C)[C@H](NC(=O)c4ccc(N5CCC(CN6CCN(c7ccc8c(c7)CN([C@H]7CCC(=O)NC7=O)C8=O)CC6)CC5)cc4)C3(C)C)ccc(C#N)c21 [Compound 39, N-((1,3-trans)-3-((8-cyano-1-methyl-4-oxo-1,4-dihydroquinolin-5-yl)oxy)-2,2,4,4-tetramethylcyclobutyl)-4-(4-((4-(2-((S)-2,6-dioxopiperidin-3-yl)-1-oxoisoindolin-5-yl)piperazin-1-yl)methyl)piperidin-1-yl)benzamide] | ≤ 50 | ≤ 50 |

The remaining lines, values ahead:

| GI50 [1] [nM] | GI50 [2] [nM] | Compound |
| --- | --- | --- |
| ≤ 50 | ≤ 50 | CC1(C)[C@H](NC(=O)c2ccc(N3CCC(CN4CCN(c5ccc6c(c5)CN([C@H]5CCC(=O)NC5=O)C6=O)CC4)CC3)c(F)c2)C(C)(C)[C@H]1Oc1ccc(C#N)c2[nH]c(=O)ccc12 [Compound 16, N-((1,3-trans)-3-((8-cyano-2-oxo-1,2-dihydroquinolin-5-yl)oxy)-2,2,4,4-tetramethylcyclobutyl)-4-(4-((4-(2-((S)-2,6-dioxopiperidin-3-yl)-1-oxoisoindolin-5-yl)piperazin-1-yl)methyl)piperidin-1-yl)-3-fluorobenzamide] |
| ≤ 50 | ≤ 50 | CC1(C)C(NC(=O)c2ccc(N3CCC(CN4CCN(c5ccc6c(c5)CN([C@H]5CCC(=O)NC5=O)C6=O)CC4)CC3)cc2)C(C)(C)C1Oc1ccc(C#N)c2[nH]c(=O)ccc12 (stereo partly drawn) [Compound 18, N-((1,3-trans)-3-((8-cyano-2-oxo-1,2-dihydroquinolin-5-yl)oxy)-2,2,4,4-tetramethylcyclobutyl)-4-(4-((4-(2-((S)-2,6-dioxopiperidin-3-yl)-1-oxoisoindolin-5-yl)piperazin-1-yl)methyl)piperidin-1-yl)benzamide] |
| 50 to 500 | > 500 | CC1(C)C(NC(=O)c2ccc(N3CCC(CN4CCN(c5ccc(C(=O)N[C@H]6CCC(=O)NC6=O)nc5)CC4)CC3)cc2)C(C)(C)C1Oc1ccc(C#N)c2[nH]c(=O)ccc12 (stereo partly drawn) [Compound 43, 5-(4-((1-(4-(((1,3-trans)-3-((8-cyano-2-oxo-1,2-dihydroquinolin-5-yl)oxy)-2,2,4,4-tetramethylcyclobutyl)carbamoyl)phenyl)piperidin-4-yl)methyl)piperazin-1-yl)-N-((S)-2,6-dioxopiperidin-3-yl)picolinamide] |
| 50 to 500 | > 500 | CC1(C)C(NC(=O)c2ccc(N3CCC(CN4CCN(c5ccc6c(=O)n(C7CCC(=O)NC7=O)ncc6c5)CC4)CC3)cc2)C(C)(C)C1Oc1ccc(C#N)c2[nH]c(=O)ccc12 (stereo not drawn) [Compound 49, N-((1,3-trans)-3-((8-cyano-2-oxo-1,2-dihydroquinolin-5-yl)oxy)-2,2,4,4-tetramethylcyclobutyl)-4-(4-((4-(2-(2,6-dioxopiperidin-3-yl)-1-oxo-1,2-dihydrophthalazin-6-yl)piperazin-1-yl)methyl)piperidin-1-yl)benzamide] |
